Measured values reported in US10077261B2, “Imidazolin-5-one derivative useful as FASN inhibitors for the treatment of cancer” (Janssen Pharmaceutica NV, priority 2012, dated 2018).

Columns and labels:
[1] = target: T1, hFASN enzyme (full length) (Homo sapiens, UniProt P49327); assay: Fatty Acid Synthase (FASN) inhibition scintillation proximity assay; type: biochemical; conditions: for inhibition at 10 µM: read-out: Human FASN % inhibition @ 10 μM, 10 μM test compound; for IC50: read-out: Human FASN pIC50 (converted)
T1 construct: 10 μL hFASN enzyme (full length, 300 ng, purified in house); made in house
How it was run: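 Compounds at 0.01–30 μM were mixed with 300 ng purified full-length enzyme in 100 mM KH2PO4 pH 7.5, 1 mM DTT. Substrates ³H-acetyl-CoA and malonyl-CoA were then converted, and bead addition stopped the reaction. Signal was normalised to low and high plate controls and fitted by 4-parameter nonlinear regression.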

A2780 ovarian cells [2] = assay: A2780 ovarian cell proliferation assay in lipid reduced medium, with palmitate (MTT); type: cell-based; conditions: Homo sapiens, A2780, 96 h; read-out: pIC50 A2780 Ovarian Cell, With Palmitate (converted)
How it was run: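 Seeded cells were switched next day to lipid-reduced serum, exposed to compound and 25 μM palmitate complexed with fatty-acid-free BSA, and incubated 96 h. Proliferation was then determined by MTT absorbance at 544 nm, with a best-fit curve of signal against concentration.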

A2780 ovarian cells [3] = assay: A2780 ovarian cell proliferation assay in lipid reduced medium, without palmitate (MTT); type: cell-based; conditions: Homo sapiens, A2780, 96 h; read-out: pIC50 A2780 Ovarian Cell, Without Palmitate (converted)
[4] = system: LNCaP-Vancouver prostate cells; assay: In vitro LNCaP Vancouver prostate cell proliferation assay in lipid reduced medium; type: cell-based; conditions: read-out: pIC50 LNCaP_Vancouver prostate cell (converted)
[5] = system: PC-3M-Luc-C6 prostate cells; assay: In vitro PC-3M-Luc-C6 prostate cell proliferation assay in lipid reduced medium; type: cell-based; conditions: 96 h, read-out: pIC50 PC-3M-Luc-C6 prostate cell (converted)
[6] = target: Fatty Acid Synthase Keto-reductase Domain (FASN KR) (Homo sapiens, UniProt P49327); assay: Fatty Acid Synthase keto-reductase domain (FASN KR) inhibition, NADPH oxidation at 340 nm
Sequence of Fatty Acid Synthase Keto-reductase Domain (FASN KR) (P49327 whole entry, the tested form may be a part): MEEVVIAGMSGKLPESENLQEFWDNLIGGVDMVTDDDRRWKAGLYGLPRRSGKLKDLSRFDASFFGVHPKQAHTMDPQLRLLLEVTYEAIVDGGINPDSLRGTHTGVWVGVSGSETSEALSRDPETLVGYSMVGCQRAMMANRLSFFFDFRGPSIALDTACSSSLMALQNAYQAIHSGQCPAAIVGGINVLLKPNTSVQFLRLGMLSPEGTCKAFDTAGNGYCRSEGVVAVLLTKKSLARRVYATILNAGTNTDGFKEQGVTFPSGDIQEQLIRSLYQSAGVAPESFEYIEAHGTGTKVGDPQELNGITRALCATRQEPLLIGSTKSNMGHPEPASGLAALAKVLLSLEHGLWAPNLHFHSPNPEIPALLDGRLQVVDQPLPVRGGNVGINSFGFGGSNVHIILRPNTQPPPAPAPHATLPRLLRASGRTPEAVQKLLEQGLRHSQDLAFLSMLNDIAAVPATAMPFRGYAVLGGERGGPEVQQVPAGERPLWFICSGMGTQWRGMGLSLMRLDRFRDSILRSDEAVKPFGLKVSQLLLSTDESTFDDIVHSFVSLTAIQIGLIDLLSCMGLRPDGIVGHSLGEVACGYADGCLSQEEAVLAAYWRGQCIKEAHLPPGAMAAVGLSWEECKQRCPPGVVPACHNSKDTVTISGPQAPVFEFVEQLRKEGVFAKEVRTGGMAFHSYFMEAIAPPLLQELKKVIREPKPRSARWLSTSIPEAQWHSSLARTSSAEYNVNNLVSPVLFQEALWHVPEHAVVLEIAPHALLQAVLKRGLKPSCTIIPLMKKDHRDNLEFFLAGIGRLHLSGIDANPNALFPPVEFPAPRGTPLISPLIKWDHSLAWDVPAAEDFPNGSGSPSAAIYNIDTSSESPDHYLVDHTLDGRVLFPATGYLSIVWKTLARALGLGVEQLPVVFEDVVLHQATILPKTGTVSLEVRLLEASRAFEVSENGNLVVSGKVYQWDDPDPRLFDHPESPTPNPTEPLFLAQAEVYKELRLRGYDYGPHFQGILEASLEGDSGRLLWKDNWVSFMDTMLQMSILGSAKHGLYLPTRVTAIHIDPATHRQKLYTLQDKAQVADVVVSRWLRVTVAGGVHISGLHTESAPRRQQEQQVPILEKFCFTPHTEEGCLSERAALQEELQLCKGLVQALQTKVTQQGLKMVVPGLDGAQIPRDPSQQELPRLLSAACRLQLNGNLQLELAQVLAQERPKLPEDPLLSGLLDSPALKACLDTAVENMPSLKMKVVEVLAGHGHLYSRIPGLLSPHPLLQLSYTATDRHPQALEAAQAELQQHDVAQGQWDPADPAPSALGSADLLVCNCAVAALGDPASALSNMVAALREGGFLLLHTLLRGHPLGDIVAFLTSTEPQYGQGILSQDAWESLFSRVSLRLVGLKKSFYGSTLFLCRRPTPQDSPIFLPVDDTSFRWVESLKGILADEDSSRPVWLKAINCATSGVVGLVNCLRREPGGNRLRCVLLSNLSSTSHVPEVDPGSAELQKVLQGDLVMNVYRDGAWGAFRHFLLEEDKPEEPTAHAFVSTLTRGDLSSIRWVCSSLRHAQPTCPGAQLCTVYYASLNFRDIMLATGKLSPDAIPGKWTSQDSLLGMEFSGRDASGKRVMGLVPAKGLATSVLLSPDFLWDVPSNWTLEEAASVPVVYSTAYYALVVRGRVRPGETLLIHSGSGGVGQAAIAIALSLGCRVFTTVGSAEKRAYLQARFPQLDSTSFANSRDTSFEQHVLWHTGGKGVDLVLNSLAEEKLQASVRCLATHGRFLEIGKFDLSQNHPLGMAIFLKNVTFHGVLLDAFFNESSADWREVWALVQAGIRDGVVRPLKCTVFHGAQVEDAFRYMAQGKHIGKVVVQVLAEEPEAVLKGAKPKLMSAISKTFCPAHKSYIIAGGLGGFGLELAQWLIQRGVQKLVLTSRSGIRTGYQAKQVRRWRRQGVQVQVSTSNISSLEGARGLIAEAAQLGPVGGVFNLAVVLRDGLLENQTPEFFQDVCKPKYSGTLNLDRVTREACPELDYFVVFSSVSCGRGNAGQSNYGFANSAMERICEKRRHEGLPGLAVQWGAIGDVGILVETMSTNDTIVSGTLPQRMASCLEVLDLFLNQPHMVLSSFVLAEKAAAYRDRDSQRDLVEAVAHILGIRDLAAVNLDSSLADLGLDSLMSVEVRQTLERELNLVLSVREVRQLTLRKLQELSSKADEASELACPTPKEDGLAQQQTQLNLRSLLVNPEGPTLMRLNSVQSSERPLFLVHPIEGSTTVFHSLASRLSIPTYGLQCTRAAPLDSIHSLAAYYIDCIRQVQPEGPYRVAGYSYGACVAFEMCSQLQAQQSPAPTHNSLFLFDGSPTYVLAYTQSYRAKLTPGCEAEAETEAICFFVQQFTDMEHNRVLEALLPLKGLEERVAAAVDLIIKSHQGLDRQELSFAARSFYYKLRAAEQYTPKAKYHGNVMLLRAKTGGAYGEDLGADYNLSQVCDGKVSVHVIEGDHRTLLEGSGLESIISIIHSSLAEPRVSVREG
Experimental: After 20 minutes incubation at room temperature the plate was measured again (T2).
The decrease in absorbance was calculated as (Absorbance before incubation T1)−(Absorbance following incubation T2).
A plot of Controlmin versus test compound concentration was fitted to a 4-parameter logistic curve using a non-linear least squares regression method.

T1 sequence (P49327 whole entry): as the sequence (P49327 whole entry, the tested form may be a part) above

SMILES	inhibition at 10 µM [1] [%]	IC50 [1] [µM]	IC50 (A2780 ovarian cells [2]) [µM]	IC50 (A2780 ovarian cells [3]) [µM]	IC50 [4] [µM]	IC50 [5] [µM]	IC50 [6] [µM]	Human FASN pIC50 ([1]; hFASN enzyme full length, scintillation proximity assay, "~" = standard error of pIC50 larger than 0.5)
Cc1sc2ccc(-c3ccc(C4=NC5(CC5)C(=O)N4CC4CN(C(=O)C5CC5)C4)cc3)cc2c1C [compound 418, 6-{[1-(Cyclopropylcarbonyl)azetidin-3-yl]methyl}-5-[4-(2,3-dimethyl-1-benzothiophen-5-yl)phenyl]-4,6-diazaspiro[2.4]hept-4-en-7-one]	103	0.151	> 10	~2.14	~2.51	1.58	0.302	
O=C(C1CC1)N1CC[C@@H](CN2C(=O)C3(CC3)N=C2c2ccc(-c3ccc4occc4c3)nc2)C1 [compound 420, 5-[6-(1-Benzofuran-5-yl)pyridin-3-yl]-6-{[(3R)-1-(cyclopropylcarbonyl)pyrrolidin-3-yl]methyl}-4,6-diazaspiro[2.4]hept-4-en-7-one]	92	0.49	> 10	~2.09	6.46	1.66	0.977	
O=C(C1CC1)N1CC[C@@H](CN2C(=O)C3(CC3)N=C2c2ccc(-c3ccc4sccc4c3)s2)C1 [compound 425, 5-[5-(1-Benzothiophen-5-yl)thiophen-2-yl]-6-{[(3R)-1-(cyclopropylcarbonyl)pyrrolidin-3-yl]methyl}-4,6-diazaspiro[2.4]hept-4-en-7-one]	93	0.275	> 10	~6.92	3.16	2.19	0.646	
O=C(C1CC1)N1CC[C@@H](CN2C(=O)C3(CC3)N=C2c2ccc(-c3ccc4c(c3)N=CC4)s2)C1 [compound 426, 6-{[(3R)-1-(Cyclopropylcarbonyl)pyrrolidin-3-yl]methyl}-5-[5-(3H-indol-6-yl)thiophen-2-yl]-4,6-diazaspiro[2.4]hept-4-en-7-one]	94	0.347	> 10	2.34	2.34	1.74	0.708	
Cc1cc2cc(-c3ccc(C4=NC5(CC5)C(=O)N4CC4CN(C(=O)C5CC5)C4)cc3)ccc2s1 [compound 432, 6-{[1-(Cyclopropylcarbonyl)azetidin-3-yl]methyl}-5-[4-(2-methyl-1-benzothiophen-5-yl)phenyl]-4,6-diazaspiro[2.4]hept-4-en-7-one]	98	0.141	> 6.17	1.51	2.04	0.871	0.447	
O=C(C1CC1)N1CC(CN2C(=O)C3(CC3)N=C2c2ccc(-c3ccc4[nH]ccc4c3)c(F)c2)C1 [compound 440, 6-{[1-(Cyclopropylcarbonyl)azetidin-3-yl]methyl}-5-[3-fluoro-4-(1H-indol-5-yl)phenyl]-4,6-diazaspiro[2.4]hept-4-en-7-one]	97	0.195	> 10	0.0955	1.15	0.234	0.214	
O=C(C1CC1)N1CC[C@@H](CN2C(=O)C3(CC3)N=C2c2ccc(-c3ccc4c(c3)COCC4)cc2)C1 [compound 453, 6-{[(3R)-1-(Cyclopropylcarbonyl)pyrrolidin-3-yl]methyl}-5-[4-(3,4-dihydro-1H-2-benzopyran-7-yl)phenyl]-4,6-diazaspiro[2.4]hept-4-en-7-one]	94	0.245	> 10	2.14	2.95	1.62	1.12	
O=C(C1CC1)N1CC[C@@H](CN2C(=O)C3(CC3)N=C2c2ccc(-c3ccc4c(c3)CCO4)cc2)C1 [compound 462, 6-{[(3R)-1-(Cyclopropylcarbonyl)pyrrolidin-3-yl]methyl}-5-[4-(2,3-dihydro-1-benzofuran-5-yl)phenyl]-4,6-diazaspiro[2.4]hept-4-en-7-one]	98	0.158	> 10	1.86	2.34	1.17	0.912	

Next, values leading:

inhibition at 10 µM [1] [%]	IC50 [1] [µM]	IC50 (A2780 ovarian cells [2]) [µM]	IC50 (A2780 ovarian cells [3]) [µM]	IC50 [4] [µM]	IC50 [5] [µM]	IC50 [6] [µM]	Human FASN pIC50 ([1]; hFASN enzyme full length, scintillation proximity assay, "~" = standard error of pIC50 larger than 0.5)	SMILES
94		> 10	1.15	1.29	1.05	1.78	6.34	Cn1ncc2cc(-c3ccc(C4=NC5(CC5)C(=O)N4C[C@@H]4CCN(C(=O)C5CC5)C4)cn3)ccc21 [compound 421, 6-{[(3R)-1-(Cyclopropylcarbonyl)pyrrolidin-3-yl]methyl}-5-[6-(1-methyl-1H-indazol-5-yl)pyridin-3-yl]-4,6-diazaspiro[2.4]hept-4-en-7-one]
90	0.316	> 10	1.29	2.57	1.35	0.55		O=C(C1CC1)N1CC[C@@H](CN2C(=O)C3(CC3)N=C2c2ccc(-c3ccc4[nH]ccc4c3)s2)C1 [compound 423, 6-{[(3R)-1-(Cyclopropylcarbonyl)pyrrolidin-3-yl]methyl}-5-[5-(1H-indol-5-yl)thiophen-2-yl]-4,6-diazaspiro[2.4]hept-4-en-7-one]
91	0.417	> 10	0.832	2.63	0.851	1.12		O=C(C1CC1)N1CC[C@@H](CN2C(=O)C3(CC3)N=C2c2ccc(-c3cccc4[nH]ncc34)s2)C1 [compound 427, 6-{[(3R)-1-(Cyclopropylcarbonyl)pyrrolidin-3-yl]methyl}-5-[5-(1H-indazol-4-yl)thiophen-2-yl]-4,6-diazaspiro[2.4]hept-4-en-7-one]
101	0.138	> 10	~1.1	2.82	0.794	0.589		O=C(C1CC1)N1CC[C@@H](CN2C(=O)C3(CC3)N=C2c2ccc(-c3ccc4cc[nH]c4c3)cn2)C1 [compound 428, 6-{[(3R)-1-(Cyclopropylcarbonyl)pyrrolidin-3-yl]methyl}-5-[5-(1H-indol-6-yl)pyridin-2-yl]-4,6-diazaspiro[2.4]hept-4-en-7-one]
95	0.251	> 10	~0.209	1.82	0.417	0.562		Cc1cc(C2=NC3(CC3)C(=O)N2C[C@@H]2CCN(C(=O)C3CC3)C2)ccc1-c1ccc2[nH]ncc2c1 [compound 444, 6-{[(3R)-1-(Cyclopropylcarbonyl)pyrrolidin-3-yl]methyl}-5-[4-(1H-indazol-5-yl)-3-methylphenyl]-4,6-diazaspiro[2.4]hept-4-en-7-one]
100	0.182	> 10	0.0676	1.17	0.234	0.209		Cc1cc(C2=NC3(CC3)C(=O)N2C[C@@H]2CCN(C(=O)C3CC3)C2)ccc1-c1cccc2[nH]ncc12 [compound 445, 6-{[(3R)-1-(Cyclopropylcarbonyl)pyrrolidin-3-yl]methyl}-5-[4-(1H-indazol-4-yl)-3-methylphenyl]-4,6-diazaspiro[2.4]hept-4-en-7-one]
97	0.229	> 10	0.631	2.04	0.55	0.525		Nc1cc(-c2ccc(C3=NC4(CC4)C(=O)N3C[C@@H]3CCN(C(=O)C4CC4)C3)cc2)ccn1 [compound 452, 5-[4-(2-Aminppyridin-4-yl)phenyl]-6-{[(3R)-1-(cyclopropylcarbonyl)pyrrolidin-3-yl]methyl}-4,6-diazaspiro[2.4]hept-4-en-7-one]
91	0.457	> 6.17	1.26	> 3.02	2.19	1.45		O=C1Cc2cc(-c3ccc(C4=NC5(CC5)C(=O)N4C[C@@H]4CCN(C(=O)C5CC5)C4)cc3)ccc2N1 [compound 457, 5-[4-(6-{[(3R)-1-(Cyclopropylcarbonyl)pyrrolidin-3-yl]methyl}-7-oxo-4,6-diazaspiro[2.4]hept-4-en-5-yl)phenyl]-1,3-dihydro-2H-indol-2-one]
95	0.141	> 10	~0.427	~2.51	~0.603	1.17		O=C1Cc2ccc(-c3ccc(C4=NC5(CC5)C(=O)N4C[C@@H]4CCN(C(=O)C5CC5)C4)cc3)cc2N1 [compound 461, 6-[4-(6-{[(3R)-1-(Cyclopropylcvarbonyl)pyrrolidin-3-yl]methyl}-7-oxo-4,6-diazaspiro[2.4]hept-4-en-5-yl)phenyl]-1,3-dihydro-2H-indol-2-one]
